Read-outs that look alike come from different tables or passages of the source. One block for each molecule: values may come before it.
Key:
[1] = tested on: HUVEC; test: Growth inhibition studies using HUVEC; assay type: cell-based, human; conditions: Homo sapiens, HUVEC
Description: (§1) The following assays (1–5) were carried out as described in our paper (Woods, et al, British Journal of Cancer, 71, 705–711 (1995)). In addition to the cell lines described in this paper, other established human cell lines (K562, HUVEC, H460, BE, H529, and HT29) were used in the cytotoxicity/growth inhibition assay. • (1) Inhibition of tubulin assembly. The figure quoted is the concentration required to reduce assembly of tubulin by 50%. Tubulin assembly is monitored by light scatter/absorption at 350 nm.
(§2) (2) Competition for the colchicine binding site on tubulin. The figure quoted represents the % of ^3H-colchicine bound following co-incubation of test compound and ^3H-cochicine with isolated tubulin. Where ester pro-drugs were used the experiments were carried out in the presence and absence of porcine liver esterase. • (3) Cytotoxicity/growth inhibition assay. This was carried out by the MTT assay. • (4) Permeability (shape-change) assay in endothelial cells. This was carried out using a method based on that of Watts et al. (Anticancer Res., 17, 71–75, (1997)). This involved the diffusion of a fluorescently labelled dextran through a barrier of endothelial cells (HUVEC) grown to confluence on a porous membrane. The effect of agents to alter the shape of these cells results in an increase in the permeability of the cells to the dye. The figure represents the increase in permeability over control cultures when drug is added (30 minutes, 1 mM.). • (5) Experiments to study the anti-vascular effects of these agents were carried out as described previously by our group. (Zhao et al, European Journal of Nuclear Medicine, 26, 231–238 (1999)). The anti-vascular effects of the agents were monitored by either positron emission tomography (PET) or by histologogical examination following treatment of mice bearing T50:80 murine breast tumours, or H460 human lung tumours. • (6) Anti-tumour efficacy of agents was determined in xenografts of H460 human lung cancer. Animals (n=5) were trated either with 5 daily injections and tumour size measured with time following treatment. • (7) The pharmacokinetic profile of agents was determined in mice following injection with drug. Blood was taken at various times following treatment and analysed by HPLC with UV detection. The HPLC conditions were isocratic using a 5 micron C18 BDS column (150×4.6) ad eluting with 75% MeOH in water with a detection wavelength of 290 nm. […] (AND(P)H:quinone oxidoreductace, EC 1.6.99.2). DT-diaphorase is an enzyme over-expressed in a number of human tumours. […] This two-electron reducing enzyme can be used to selectively activate prodrugs within cancers which over-express the enzyme.

[2] = tested on: tubulin; test: MA IC50 (Tables 12-26, abbreviation not defined); assay type: biochemical
[3] = tested on: K562; test: K562 cell cycle analysis; assay type: cell-based, human; conditions: K562
[4] = tested on: tubulin; test: CD IC50 (Tables 12-26, abbreviation not defined); assay type: binding
[5] = tested on: K562 human myelogeneous leukaemia cell line; test: Cytotoxicity/growth inhibition assay (MTT), K562; assay type: cell-based
Description: as §1, with “In” for “The following assays (1–5) were carried out as described in our paper (Woods, et al, British Journal of Cancer, 71, 705–711 (1995)). In”
as §2, with “This was carried out using a method based on that of Watts et al. (Anticancer Res., 17, 71–75, (1997)).” left out, “(Zhao et al, European Journal of Nuclear Medicine, 26, 231–238 (1999)).” left out, “detection.” for “detection. The HPLC conditions were isocratic using a 5 micron C18 BDS column (150×4.6) ad eluting with 75% MeOH in water with a detection wavelength of 290 nm.”

[6] = tested on: P388 murine leukaemia cell line; test: Cytotoxicity/growth inhibition assay (MTT), P388; assay type: cell-based; conditions: MTT
Description: as §2, with “This was carried out using a method based on that of Watts et al. (Anticancer Res., 17, 71–75, (1997)).” left out, “(Zhao et al, European Journal of Nuclear Medicine, 26, 231–238 (1999)).” left out, “detection.” for “detection. The HPLC conditions were isocratic using a 5 micron C18 BDS column (150×4.6) ad eluting with 75% MeOH in water with a detection wavelength of 290 nm.”

[7] = tested on: T1, tubulin; test: Inhibition of tubulin assembly; assay type: biochemical; conditions: concentration required to reduce assembly of tubulin by 50%
T1 construct: other: concentration required to reduce assembly of tubulin by 50%
Description: as §1

[8] = tested on: A2780; test: Cytotoxicity/growth inhibition assay (MTT), A2780; assay type: cell-based; conditions: read-out: A2780 IC50
Description: as §1, §2

[9] = tested on: K562; test: IC50 of aliquots after ex situ irradiation in a photochemical reactor; conditions: for IC50: read-out: IC50 K562, ex situ irradiation in benzene, 400W Hg lamp
[10] = Photocleavage and isomerisation of coupled trans-CA-4 ex situ, composition (HPLC); assay type: physicochemical; conditions: benzene
Description: The following compound retention times were observed:

[11] = tested on: K562 cells; test: In situ ultra violet irradiation of dosed K562 cells, IC50; assay type: cell-based, human; conditions: read-out: IC50 K562 (nm)
Description: Previously, the isomerisation study had been performed ex situ, i.e. in a photochemical reactor. However, it was necessary to illustrate the potential of the process as a real therapy by repeating the isomerization in the presence of the caner cells i.e. in situ. […] Following irradiation, the cells were incubated in the normal way and the IC50 values were determined.
These consisted of i) exposing K562 cells only (i.e. cells which were not dosed with any potential drug candidate) to ultra violet light, ii) preventing K562 cells dosed with drug candidate from being exposed to ultra violet light, and iii) preventing K562 cells only (i.e. cells which were not dosed with any potential drug candidate) from being exposed to ultra violet light. […]

[12] = of cells with DNA content = 2 n or >2 n
[13] = Homo sapiens, K562, MTT, read-out: K562 IC50
[14] = irradiation 20. mins [sic] (Table 8)
[15] = irradiation 10.0 mins (Table 8)
[16] = irradiation 12.5 mins (Table 8)

SMILES: COc1ccc(C=C(C)c2cc(OC)c(OC)c(OC)c2)cc1O [Compound 210]
IC50 [1]: 90 nM
IC50 [2]: 130 nM
% of cells with DNA content <2 n [3]: 23%
% of cells in G0–G1 [3, 12]: 5%
% of cells in G2-M [3, 12]: 73%
% of cells in S phase [3, 12]: 22%
IC50 [4]: 6000 nM
IC50 [5, 13]: 40 nM
IC50 ([5]; Homo sapiens, K562, Table 22, read-out: MTT (K582) IC50): 40 nM

SMILES: COc1ccc(/C=C\c2cc(OC)c(OC)c(OC)c2)cc1Br [Compound 93]
IC50 [1]: 67 nM
IC50 [2]: 400 nM
IC50 [4]: 10000 nM
IC50 [5, 13]: 1 nM

IC50 [7]: 60 µM
SMILES: COc1ccc(/C=C\c2cc(OC)c(OC)c(OC)c2)cc1OC [Compound 99-03H]
IC50 [6]: 190 nM
IC50 [8]: 120 nM
IC50 ([5]; MTT, read-out: K562 IC50): 60 nM

SMILES: COC(=O)CCCOc1cc([N+](=O)[O-])c(COc2cc(/C=C/c3cc(OC)c(OC)c(OC)c3)ccc2OC)cc1OC [Compound E-8, Methyl 4-[2′-methoxy-4′-({2″-methoxy-5″-[(E)-2′″-3′″,4′″,5′″-trimethoxyphenylethenyl]phenoxy}-methyl)-5′-nitrophenoxy]butanoate]
times less cytotoxic than trans-CA-4 ([9]; K562): 5
IC50 ([9]; 0 mins (Table 8)): > 150000 nM
IC50 ([9]; 20. mins as printed (Table 8)): 59 nM
IC50 ([9]; 0.5 mins (Table 8)): 14600 nM
IC50 ([9]; 1.0 mins (Table 8)): 450 nM
IC50 ([9]; 1.5 mins (Table 8)): 90 nM
IC50 ([9]; 3.0 mins (Table 8)): 14 nM
IC50 ([9]; 4.0 mins (Table 8)): 12 nM
IC50 ([9]; 5.0 mins (Table 8)): 8 nM
IC50 ([9]; 7.5 mins (Table 8)): 4 nM
IC50 ([9]; 10.0 mins (Table 8)): 6 nM
IC50 ([9]; 12.5 mins (Table 8)): 2 nM
IC50 ([9]; 15.0 mins (Table 8)): 2 nM
IC50 ([9]; 17.5 mins (Table 8)): 4 nM
IC50 ([9]; 20.0 mins (Table 8)): 3 nM
% coupled trans-CA-4 (E-8) ([10]; irradiation 0 mins (Table 8)): 100%
% cis-CA-4 [10, 14]: 9%
% coupled trans-CA-4 (E-8) [10, 14]: 72%
% trans-CA-4 [10, 14]: 19%
% coupled trans-CA-4 (E-8) ([10]; irradiation 0.5 mins (Table 8)): 93%
% trans-CA-4 ([10]; irradiation 0.5 mins (Table 8)): 7%
% cis-CA-4 ([10]; irradiation 1.0 mins (Table 8)): 4%
% coupled trans-CA-4 (E-8) ([10]; irradiation 1.0 mins (Table 8)): 88%
% trans-CA-4 ([10]; irradiation 1.0 mins (Table 8)): 8%
% cis-CA-4 ([10]; irradiation 1.5 mins (Table 8)): 8%
% coupled trans-CA-4 (E-8) ([10]; irradiation 1.5 mins (Table 8)): 80%
% trans-CA-4 ([10]; irradiation 1.5 mins (Table 8)): 12%
% cis-CA-4 ([10]; irradiation 3.0 mins (Table 8)): 11%
% coupled trans-CA-4 (E-8) ([10]; irradiation 3.0 mins (Table 8)): 62%
% trans-CA-4 ([10]; irradiation 3.0 mins (Table 8)): 27%
% cis-CA-4 ([10]; irradiation 4.0 mins (Table 8)): 8%
% coupled trans-CA-4 (E-8) ([10]; irradiation 4.0 mins (Table 8)): 61%
% trans-CA-4 ([10]; irradiation 4.0 mins (Table 8)): 31%
% cis-CA-4 ([10]; irradiation 5.0 mins (Table 8)): 10%
% coupled trans-CA-4 (E-8) ([10]; irradiation 5.0 mins (Table 8)): 53%
% trans-CA-4 ([10]; irradiation 5.0 mins (Table 8)): 37%
% cis-CA-4 ([10]; irradiation 7.5 mins (Table 8)): 13%
% coupled trans-CA-4 (E-8) ([10]; irradiation 7.5 mins (Table 8)): 42%
% trans-CA-4 ([10]; irradiation 7.5 mins (Table 8)): 45%
% cis-CA-4 [10, 15]: 19%
% coupled trans-CA-4 (E-8) [10, 15]: 34%
% trans-CA-4 [10, 15]: 47%
% cis-CA-4 [10, 16]: 45%
% coupled trans-CA-4 (E-8) [10, 16]: 20%
% trans-CA-4 [10, 16]: 35%
IC50 ([11]; in situ UV 0 mins (Table 9)): > 100000 nM
IC50 ([11]; in situ UV 0.5 mins (Table 9)): 1540 nM
IC50 ([11]; in situ UV 1 mins (Table 9)): 450 nM
IC50 ([11]; in situ UV 1.5 mins (Table 9)): 250 nM
IC50 ([11]; in situ UV 2 mins (Table 9)): 130 nM
IC50 ([11]; in situ UV 3 mins (Table 9)): 40 nM
IC50 ([11]; in situ UV 4 mins (Table 9)): 11 nM
IC50 ([11]; in situ UV 5 mins (Table 9)): 9 nM
IC50 ([11]; in situ UV 7.5 mins (Table 9)): 5 nM
IC50 ([11]; in situ UV 10 mins (Table 9)): 2 nM
IC50 ([11]; in situ UV 12.5 mins (Table 9)): 3 nM
IC50 ([11]; in situ UV 15 mins (Table 9)): 3 nM
IC50 ([11]; in situ UV 17.5 mins (Table 9)): 2 nM
IC50 ([11]; in situ UV 20 mins (Table 9)): 2 nM

SMILES: CCOc1cc(/C=C\c2ccc(OC)c(F)c2)cc(OCC)c1OCC [Compound 32a, Z-1-(3′,4′,5′-triethoxyphenyl)-2-(3″-fluoro-4″-methoxyphenyl)ethene]
IC50 [7]: 18 µM
IC50 [5, 13]: 44 nM

SMILES: CC/C(=C/c1cc(OC)c(OC)c(OC)c1)c1ccc(OC)c(O)c1 [Compound 45]
IC50 [7]: 1.8 µM
IC50 [5, 13]: 120 nM

SMILES: CCOc1cc(/C=C\c2ccc(OC)c(O)c2)cc(OCC)c1OCC [Compound 31a, Z-1-(3′,4′,5′-triethoxyphenyl)-2-(3″-hydroxy-4″-methoxyphenyl)ethene]
IC50 [7]: 7.5 µM
IC50 [5, 13]: 18 nM

SMILES: COc1cc(C=Cc2ccc(C=O)cc2)cc(OC)c1OC [Compound 96-188]
IC50 [6]: 320 nM
IC50 [8]: 81 nM

SMILES: COc1ccc(/C=C\c2cc(OC)c(OC)c(OC)c2)cc1 [Compound 32]
IC50 [1]: 6 nM
IC50 [2]: 200 nM
IC50 [4]: 5500 nM
IC50 [5, 13]: 4 nM
